For 16 compounds, EC50 results are on record in patent publication US20170008888A1 (KYORIN PHARMACEUTICAL CO., LTD., priority 2014, published 2017).

As usually defined, the EC50 is the concentration giving half of the maximal effect.

This test deals with human PBMCs. The experiment in a line: Human PBMC TNF-α response to endotoxin (ELISA). Format: cell-based. The note with it: 0.1 μg/ml LPS 16 h, read-out: EC50 for the inhibition of the human PBMC TNF-α response to endotoxin, ave. ± S.D. A digest of the protocol: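 PBMCs at 2e6 cells/ml in RPMI 1640 with 10% charcoal-dextran-treated FBS were pre-treated 1 h at 37 °C with compound (4-point 1:5 dilution from 10 μM). Stimulation with 0.1 μg/ml E. coli 0111:B4 LPS for 16 h; TNF-α measured by ELISA (A450) in 25-fold diluted supernatant.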
For orientation: ELISA stands for enzyme-linked immunosorbent assay.
As to `CCOc1cc(C(=O)N2CCCCC2)ccc1Nc1cc2c(cn1)N(C)C(=O)c1ccccc1N2C` [Compound 12], the EC50 turned out to be 630 nM.

Regarding `CCOc1cc(C(=O)N2CCC(N3CCCC3)C2)ccc1Nc1cc2c(cn1)N(C)C(=O)c1occc1N2C` (stereo not shown) [Compound 15], the EC50 stood at 490 ± 30 nM. Under `CCOc1cc(C(=O)N2CC[C@H](O)C2)ccc1Nc1cc2c(cn1)N(C)C(=O)c1occc1N2C` [Compound 17] stands 2230 nM. Under `C=CCN1CCN(C(=O)c2ccc(Nc3cc4c(cn3)N(C)C(=O)c3ccccc3N4C)c(OCC)c2)CC1` [Compound 21] stands 1220 nM; under `CCOc1cc(C(=O)N2CC[C@@H](N3CCCC3)C2)ccc1Nc1cc2c(cn1)N(C)C(=O)c1ccccc1N2C` [Compound 24], 910 nM; under `CCOc1cc(C(=O)N2CC[C@@H](N(C)C)C2)ccc1Nc1cc2c(cn1)N(C)C(=O)c1occc1N2C` [Compound 25], 1170 ± 70 nM. The same measure for `CCOc1cc(C(=O)N(C)CCN2CCCC2)ccc1Nc1cc2c(cn1)N(C)C(=O)c1ccccc1N2C` [Compound 28]: 480 nM; for `CCOc1cc(C(=O)N(C)CCn2ccnc2)ccc1Nc1cc2c(cn1)N(C)C(=O)c1ccccc1N2C` [Compound 30]: 1260 ± 170 nM; for `CCOc1cc(C(=O)N2CCNC[C@@H]2C)ccc1Nc1cc2c(cn1)N(C)C(=O)c1ccccc1N2C` [Compound 31]: 1250 nM. As to `CCOc1cc(C(=O)N2CCN(CCO)CC2)ccc1Nc1cc2c(cn1)N(C)C(=O)c1ccccc1N2C` [Compound 37], the EC50 came to 960 nM. Regarding `CCOc1cc(C(=O)N2CCN(C3CC3)CC2)ccc1Nc1cc2c(cn1)N(C)C(=O)c1ccccc1N2C` [Compound 39], the EC50 stood at 1770 nM. As for `CCOc1cc(C(=O)N2CCC(N3CCN(C)CC3)CC2)ccc1Nc1cc2c(cn1)N(C)C(=O)c1ncccc1N2C` [Compound 40], the EC50 was above 10000 nM.

Consider `CCOc1cc(C(=O)N(C)CCN(CC)CC)ccc1Nc1cc2c(cn1)N(C)C(=O)c1ccccc1N2C` [Compound 42], for which the EC50 stood at 650 nM. Under `CCOc1cc(C(=O)N2CCC(NC)C2)ccc1Nc1cc2c(cn1)N(C)C(=O)c1occc1N2C` (stereo not shown) [Compound 43] stands 1480 nM; under `CCOc1cc(C(=O)NCCN2CCN(C)CC2)ccc1Nc1cc2c(cn1)N(C)C(=O)c1ccccc1N2C` [Compound 44], 590 nM; under `CN1C(=O)c2ccccc2N(C)c2cc(N[C@H]3CC[C@H](NC4=NCCO4)CC3)ncc21` [Compound 45], 1580 nM.
